Data as given in patent publication US11596631B2, “CDK12 inhibitors and their uses” (The University of Nottingham, priority 2016, dated 2023).

How the values were obtained:
[1] = test system: nuclear foci in DM1 fibroblasts; assay: nuclear foci assay (in situ hybridisation with Cy3 CAG10 probe, high content imaging); type: cell-based; details: for activity in the nuclear foci assay (nuclear foci relative to DMSO treated cells): DM1 fibroblasts, 24 hours, dilution series; for reduction in foci on exposure for different lengths of time: 2 hours to 48 hours
Experimental: Using a previously reported assay the PKIS collection was screened for compounds that reduce nuclear foci and the compounds were then analysed for their known selectivity profiles to identify the common kinase targets (Ketley, A. et al. (2014). Hum Mol Genet, 23: 1551-1562). […] Following treatment, fluorescent in situ hybridisation was performed with a cy3 labelled CAG10 probe, to visualize nuclear foci and cells were analysed on a Molecular Devices plate reader with customised MetaExpress software (Ketley, A. et al. (2014). Hum Mol Genet, 23: 1551-1562). Compounds that reduced nuclear foci in a concentration dependent manner, compared to DMSO treated cells were identified and prioritized for further study.
[…] Plates were analysed on a Molecular Devices Micro High Content Imaging system, with nine fields imaged per well to give approximately 100 cells per well, per compound treatment. The nuclear area was identified by Hoechst stain and the number, size and intensity of foci was determined by scoring adjacent pixels that were 80 grayscales or more above background.

CDK9 = CDK9 (Homo sapiens, UniProt P50750); details: previously reported IC50 values (FIG. 13); cited from earlier work
Sequence of CDK9 (P50750 whole entry): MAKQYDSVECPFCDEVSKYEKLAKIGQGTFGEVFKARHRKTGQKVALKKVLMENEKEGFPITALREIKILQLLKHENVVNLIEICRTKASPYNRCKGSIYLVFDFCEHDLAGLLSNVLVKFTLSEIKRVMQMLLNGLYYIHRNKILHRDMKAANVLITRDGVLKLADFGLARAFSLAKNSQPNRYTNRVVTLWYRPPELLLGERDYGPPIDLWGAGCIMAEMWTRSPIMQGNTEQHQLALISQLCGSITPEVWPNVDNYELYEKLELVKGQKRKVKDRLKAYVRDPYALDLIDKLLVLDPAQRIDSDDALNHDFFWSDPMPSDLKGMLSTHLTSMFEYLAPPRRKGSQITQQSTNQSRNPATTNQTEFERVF
Sequence of CDK9 (O60563 whole entry partner): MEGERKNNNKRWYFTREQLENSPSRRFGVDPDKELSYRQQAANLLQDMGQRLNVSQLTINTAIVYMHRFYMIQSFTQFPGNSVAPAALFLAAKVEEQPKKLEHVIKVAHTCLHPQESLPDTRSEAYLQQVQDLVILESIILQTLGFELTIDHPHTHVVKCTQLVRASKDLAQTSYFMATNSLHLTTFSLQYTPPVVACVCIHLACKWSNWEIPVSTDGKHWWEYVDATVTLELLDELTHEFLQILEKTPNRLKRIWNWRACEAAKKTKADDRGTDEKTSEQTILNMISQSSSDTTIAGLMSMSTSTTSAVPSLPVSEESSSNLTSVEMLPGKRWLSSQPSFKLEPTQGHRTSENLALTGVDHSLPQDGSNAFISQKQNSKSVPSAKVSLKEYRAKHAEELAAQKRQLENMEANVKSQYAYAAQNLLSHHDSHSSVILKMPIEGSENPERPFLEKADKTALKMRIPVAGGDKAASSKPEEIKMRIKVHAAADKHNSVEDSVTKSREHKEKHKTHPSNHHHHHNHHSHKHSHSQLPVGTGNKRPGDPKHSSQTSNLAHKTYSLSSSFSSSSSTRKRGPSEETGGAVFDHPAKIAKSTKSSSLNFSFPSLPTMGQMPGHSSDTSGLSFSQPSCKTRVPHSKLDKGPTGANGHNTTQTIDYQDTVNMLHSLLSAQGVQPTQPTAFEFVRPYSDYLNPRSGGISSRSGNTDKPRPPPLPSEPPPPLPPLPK

CDK12 = biological target: T1, CDK12 (Homo sapiens, UniProt Q9NYV4); assay: chemoproteomics dose-response competition binding with SNS-032 affinity matrix; details: K562 or A204 cell extract, SNS-032 beads
T1 construct: endogenous in cells; host or cells: K562 or A204 cell extract
T1 sequence (Q9NYV4 whole entry): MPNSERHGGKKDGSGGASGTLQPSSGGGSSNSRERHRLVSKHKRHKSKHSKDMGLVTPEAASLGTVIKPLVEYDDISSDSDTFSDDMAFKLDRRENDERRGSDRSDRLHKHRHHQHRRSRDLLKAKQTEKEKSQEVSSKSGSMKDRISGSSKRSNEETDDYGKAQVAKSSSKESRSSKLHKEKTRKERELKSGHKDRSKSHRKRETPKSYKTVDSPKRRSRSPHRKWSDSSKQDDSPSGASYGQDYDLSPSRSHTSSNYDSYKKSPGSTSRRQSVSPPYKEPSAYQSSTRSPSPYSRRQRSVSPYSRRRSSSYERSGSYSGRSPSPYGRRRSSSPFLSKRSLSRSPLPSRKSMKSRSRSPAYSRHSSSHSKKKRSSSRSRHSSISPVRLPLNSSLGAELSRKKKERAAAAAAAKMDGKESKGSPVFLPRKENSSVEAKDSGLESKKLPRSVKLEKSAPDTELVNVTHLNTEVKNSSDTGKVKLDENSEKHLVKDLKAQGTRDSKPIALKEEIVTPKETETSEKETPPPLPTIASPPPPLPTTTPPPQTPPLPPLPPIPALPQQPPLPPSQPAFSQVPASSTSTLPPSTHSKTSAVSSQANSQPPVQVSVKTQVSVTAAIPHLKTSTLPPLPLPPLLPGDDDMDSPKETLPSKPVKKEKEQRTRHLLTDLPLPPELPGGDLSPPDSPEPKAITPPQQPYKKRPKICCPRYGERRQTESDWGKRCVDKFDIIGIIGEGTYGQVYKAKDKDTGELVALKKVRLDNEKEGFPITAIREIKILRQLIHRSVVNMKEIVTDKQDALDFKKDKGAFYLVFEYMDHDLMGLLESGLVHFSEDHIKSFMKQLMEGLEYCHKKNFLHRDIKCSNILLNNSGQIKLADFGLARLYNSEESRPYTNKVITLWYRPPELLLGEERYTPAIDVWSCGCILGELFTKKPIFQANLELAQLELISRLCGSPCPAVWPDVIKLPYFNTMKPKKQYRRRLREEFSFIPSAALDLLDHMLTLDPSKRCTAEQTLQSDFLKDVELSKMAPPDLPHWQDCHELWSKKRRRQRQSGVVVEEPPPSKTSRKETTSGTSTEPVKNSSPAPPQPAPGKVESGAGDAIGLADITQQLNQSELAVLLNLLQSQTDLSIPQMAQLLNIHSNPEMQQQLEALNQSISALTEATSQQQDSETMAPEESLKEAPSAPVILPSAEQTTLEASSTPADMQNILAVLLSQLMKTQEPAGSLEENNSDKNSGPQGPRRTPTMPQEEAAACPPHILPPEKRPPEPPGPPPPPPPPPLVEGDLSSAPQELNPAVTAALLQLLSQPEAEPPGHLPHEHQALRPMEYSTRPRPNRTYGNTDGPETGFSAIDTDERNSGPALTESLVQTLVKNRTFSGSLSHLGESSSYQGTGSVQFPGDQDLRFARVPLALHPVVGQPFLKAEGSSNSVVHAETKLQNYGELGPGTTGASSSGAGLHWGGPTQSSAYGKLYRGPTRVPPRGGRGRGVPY
T1 sequence (O75909 whole entry partner): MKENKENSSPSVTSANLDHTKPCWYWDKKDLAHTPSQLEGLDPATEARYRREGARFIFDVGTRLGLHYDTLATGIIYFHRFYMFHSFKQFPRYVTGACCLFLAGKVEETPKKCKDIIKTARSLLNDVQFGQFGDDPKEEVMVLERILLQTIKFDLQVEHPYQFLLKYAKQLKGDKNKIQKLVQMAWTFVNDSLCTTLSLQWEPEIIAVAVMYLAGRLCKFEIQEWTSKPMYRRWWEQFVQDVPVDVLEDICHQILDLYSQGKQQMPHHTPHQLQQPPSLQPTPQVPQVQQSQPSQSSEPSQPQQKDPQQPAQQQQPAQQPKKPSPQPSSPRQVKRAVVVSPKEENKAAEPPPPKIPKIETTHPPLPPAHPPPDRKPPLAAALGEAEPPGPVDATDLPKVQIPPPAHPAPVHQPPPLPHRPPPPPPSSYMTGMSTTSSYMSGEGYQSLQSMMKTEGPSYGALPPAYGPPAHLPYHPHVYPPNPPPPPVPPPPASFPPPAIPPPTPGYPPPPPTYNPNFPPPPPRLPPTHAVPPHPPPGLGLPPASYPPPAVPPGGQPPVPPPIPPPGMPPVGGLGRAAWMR
From the text: FIG. 4: Chemoproteomics target deconvolution. IC50 values were generated by affinity capturing of kinases from K562 or A204 cell extract using beads derivatized with SNS-032, in the presence of different concentrations of free competing compound or vehicle (DMSO). pIC50 values are plotted against the pIC50 in the foci inhibition assay for each compound. A good correlation of kinase binding affinity with the inhibitory activity on foci is observed for CDKS, CDK7, CDK9, and CDK12. r: Pearson correlation coefficient; p: p-value (calculated probability).
To determine the specific CDKs responsible for the reduction of nuclear foci it was sought to expand the target coverage within the CDK family by the immobilization of two of the active compounds containing a suitable secondary amine; SNS-032 and AT7519 (FIG. 10). […] To confirm that the K562, A204 and DM1 cell lines express the same kinases a whole proteome analysis was conducted. All CDK/PCTK proteins identified by profiling were also identified in the cells used for the phenotypic foci assay as follows: […]
Affinity profiling was performed as described previously (Bantscheff, M. et al. (2007). Nat Biotechnol, 25: 1035-1044 and Bantscheff, M. et al. (2011). Nat Biotechnol, 29: 255-265). […] Proteins were alkylated, separated on 4-12% NuPAGE (Invitrogen), stained with colloidal Coomassie, and quantified by isobaric mass tagging and LC-MS/MS.

[2] = test system: mutant DMPK transcripts in DM1 fibroblast cells; assay: RT-PCR / BpmI assay for repeat expansion transcripts; type: cell-based
Experimental: (A) Ethidium bromide stained gel showing RT-PCR products from nuclear (N) and cytoplasmic (C) RNA fractions following amplification and BpmI digest of a fragment of DMPK. GAPDH is used as a loading control. […] (D) DM1 cells treated with SNS-032 for 2 hours.
Reverse transcription was performed using 1 μg total RNA from compound-treated and untreated cells. […] For Genescan analysis primer N11 was labelled with FAM. Amplification was performed with a Tm of 58° C. The PCR product was subsequently heated to 95° C. for 2 minutes followed by cooling to 4° C. For Bpml restriction digestion analysis of DMPK PCR products, 8 μl of PCR mixture was digested overnight with restriction enzyme Bpml (NEB) in a total reaction volume of 20 μl at 37° C. The final products were analysed by electrophoresis at 90V with 3% agarose gels and the density of bands quantified using ImageJ software or by fragment analysis on an AB1377 sequencer followed by Genescan quantification.

HSALR mice = assay: inhibitor treatment in DM1 mouse model; type: in vivo; details: compared to vehicle control animals
Experimental: FIG. 7: Inhibitor treatment in a DM1 mouse model (A) Combined myotonia grade scores in quadriceps, gastrocnemius and paraspinal muscles from HSALR mice following vehicle and dinaciclib compound treatment (n=6 per treatment group) (B) Myotonia grades by muscle type in dinaciclib and vehicle treated HSALR mice.
To establish the in vivo effect of this inhibitor HSA^LR mice were treated by intraperitoneal injection for a 28 day treatment period comprising 12 injections in total.

[3] = DM1 cells, 2 hours treatment, no recovery time

Row | Compound | activity in the nuclear foci assay (nuclear foci relative to DMSO treated cells) [1] | potency against CDK9 (CDK9) | cells without nuclear foci ([1]; DM1 cells, 2 hours treatment, 48 hours recovery) [%] | cells without nuclear foci ([1]; DM1 cells, 2 hours treatment, 72 hours recovery) [%] | cells with more than 5 foci [1, 3] [%] | cells with no foci [1, 3] [%] | treatment time after which foci reduction was effective ([1]; DM1 fibroblast cells) [h] | reduction in foci on exposure for different lengths of time ([1]; DM1 fibroblast cells) | activity against the CDK family, in particular CDK12 (CDK12) | location of repeat expansion transcripts after treatment (nuclear and cytoplasmic extracts) [2] | decrease in the relative proportion of repeat expansion transcripts compared to wild type transcripts in the nucleus ([2]; 1 μM, 24 hours, Genescan) [%] | centralised nuclei in muscle fibres (laminin stain) (HSALR mice)
1 | O=C(NC1CCNCC1)c1[nH]ncc1NC(=O)c1c(Cl)cccc1Cl [AT-7519] | high activity | highest potency | – | – | – | – | – | – | – | – | – | –
2 | CC(C)(C)c1cnc(CSc2cnc(NC(=O)C3CCNCC3)s2)o1 [SNS-032] | high activity | highest potency | 14 | 36 | 28 | 10 | 2 | significant reduction in foci | – | – | – | –
3 | CCc1cnn2c(NCc3ccc[n+]([O-])c3)cc(N3CCCC[C@H]3CCO)nc12 [dinaciclib] | significantly increased activity | – | – | – | – | – | – | significant reduction in foci | most active inhibitor | still retained within the nuclear fraction | 59 | reduction in centralised nuclei
